Active and inactive are the calls of the source. The calls are words filed in the database; no cut-off is given here.
Experiments:
[1] = target: T1, Protein disulfide-isomerase (Homo sapiens, UniProt P07237); assay: Inhibition of recombinant His-tagged full length human PDI reductase activity assessed as inhibition of PDI/DTT-mediated cleavage of disulfide bond in insulin at 100 uM incubated for 40 mins by spectrophotometric analysis
Target sequence in this assay (P07237 18-508 limits assumed): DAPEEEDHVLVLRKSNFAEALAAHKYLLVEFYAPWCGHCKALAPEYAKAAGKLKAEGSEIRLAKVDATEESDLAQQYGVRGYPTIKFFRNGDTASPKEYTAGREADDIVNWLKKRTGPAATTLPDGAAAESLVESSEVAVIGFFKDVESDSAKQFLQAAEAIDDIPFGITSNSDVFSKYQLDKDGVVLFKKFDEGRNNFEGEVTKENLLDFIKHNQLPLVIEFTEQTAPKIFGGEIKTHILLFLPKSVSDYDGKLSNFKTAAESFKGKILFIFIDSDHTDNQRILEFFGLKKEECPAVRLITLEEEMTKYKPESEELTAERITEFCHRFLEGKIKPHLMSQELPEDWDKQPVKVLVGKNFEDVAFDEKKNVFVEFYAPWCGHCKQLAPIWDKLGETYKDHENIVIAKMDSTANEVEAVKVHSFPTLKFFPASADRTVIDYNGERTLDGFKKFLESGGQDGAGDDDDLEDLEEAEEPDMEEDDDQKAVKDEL

[2] = target: T1, Protein disulfide-isomerase; assay: Inhibition of recombinant His-tagged full length human PDI reductase activity assessed as inhibition of PDI/DTT-mediated cleavage of disulfide bond in insulin in the presence of DTT incubated for 40 mins by spectrophotometric analysis; settings: dose 100-200 µM, DDE = dose-dependent effect
Target sequence in this assay (P07237 18-508 limits assumed): as above

[3] = system: Mus musculus; assay: Antithrombotic activity in anesthetized ICR mouse model of electrically-induced carotid artery thrombosis assessed as inhibition of thrombosis formation by measuring increase in bleeding time at 30 mg/kg, iv; type: functional, organism-based
[4] = target: T1, Protein disulfide-isomerase; assay: Binding affinity to recombinant His-tagged full length human PDI-b' x domain substrate binding pocket expressed in Escherichia coli BL21 (DE3) cells assessed as decrease in fluorescence intensity at 100 uM incubated for 10 mins by tryptophan fluorescence based assay
Target sequence in this assay (P07237 18-508 limits assumed): as above

[5] = target: T2, Protein disulfide-isomerase A4 (Homo sapiens) (UniProt P13667); assay: Inhibition of ERp72 (unknown origin) reductase activity assessed as inhibition of PDI/DTT-mediated cleavage of disulfide bond in insulin in the presence of DTT incubated for 40 mins by spectrophotometric analysis; settings: dose 100-200 µM, DDE = dose-dependent effect
T2 sequence (whole entry): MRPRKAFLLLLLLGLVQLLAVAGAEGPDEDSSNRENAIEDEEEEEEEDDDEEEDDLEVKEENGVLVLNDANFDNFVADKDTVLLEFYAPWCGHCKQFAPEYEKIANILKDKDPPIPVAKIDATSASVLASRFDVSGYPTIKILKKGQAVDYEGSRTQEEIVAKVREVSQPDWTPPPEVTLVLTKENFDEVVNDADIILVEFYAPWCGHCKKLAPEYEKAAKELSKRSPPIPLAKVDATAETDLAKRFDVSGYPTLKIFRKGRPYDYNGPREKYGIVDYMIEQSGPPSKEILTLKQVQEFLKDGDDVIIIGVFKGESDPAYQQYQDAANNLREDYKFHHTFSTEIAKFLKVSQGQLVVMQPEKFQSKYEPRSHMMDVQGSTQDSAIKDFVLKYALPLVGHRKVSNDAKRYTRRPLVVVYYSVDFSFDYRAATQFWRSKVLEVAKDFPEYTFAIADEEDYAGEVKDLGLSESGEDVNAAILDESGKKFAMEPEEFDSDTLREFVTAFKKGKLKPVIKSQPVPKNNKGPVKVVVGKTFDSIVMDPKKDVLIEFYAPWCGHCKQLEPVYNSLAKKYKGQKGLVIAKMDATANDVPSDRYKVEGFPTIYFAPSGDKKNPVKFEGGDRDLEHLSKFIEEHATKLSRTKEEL

[6] = target: T1, Protein disulfide-isomerase; assay: Binding affinity to recombinant His-tagged full length human PDI-b' x domain substrate binding pocket expressed in Escherichia coli BL21 (DE3) cells assessed as inhibition constant at 100 uM incubated for 10 mins by tryptophan fluorescence based assay
Target sequence in this assay (P07237 whole entry): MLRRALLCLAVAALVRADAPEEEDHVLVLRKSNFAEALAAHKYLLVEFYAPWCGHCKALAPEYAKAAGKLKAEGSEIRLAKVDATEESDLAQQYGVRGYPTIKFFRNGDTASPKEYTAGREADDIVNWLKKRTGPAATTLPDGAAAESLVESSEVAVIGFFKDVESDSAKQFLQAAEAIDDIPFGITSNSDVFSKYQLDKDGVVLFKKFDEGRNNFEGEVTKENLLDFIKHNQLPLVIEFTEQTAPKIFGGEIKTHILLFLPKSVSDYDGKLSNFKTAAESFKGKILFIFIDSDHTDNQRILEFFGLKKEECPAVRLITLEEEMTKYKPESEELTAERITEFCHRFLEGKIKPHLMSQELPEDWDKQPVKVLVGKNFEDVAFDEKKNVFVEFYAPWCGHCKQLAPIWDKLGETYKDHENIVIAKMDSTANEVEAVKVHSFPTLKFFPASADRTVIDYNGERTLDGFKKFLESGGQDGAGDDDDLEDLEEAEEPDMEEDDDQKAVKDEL

[7] = system: Mus musculus; assay: Antithrombotic activity in anesthetized ICR mouse model of electrically-induced carotid artery thrombosis assessed as delay in occlusion time at 30 mg/kg, iv; type: functional, organism-based
[8] = target: T3, Protein disulfide-isomerase A3 (Homo sapiens) (UniProt P30101); assay: Inhibition of ERp57 (unknown origin) reductase activity assessed as inhibition of PDI/DTT-mediated cleavage of disulfide bond in insulin in the presence of DTT incubated for 40 mins by spectrophotometric analysis; settings: dose 100-200 µM, DDE = dose-dependent effect
T3 sequence (whole entry): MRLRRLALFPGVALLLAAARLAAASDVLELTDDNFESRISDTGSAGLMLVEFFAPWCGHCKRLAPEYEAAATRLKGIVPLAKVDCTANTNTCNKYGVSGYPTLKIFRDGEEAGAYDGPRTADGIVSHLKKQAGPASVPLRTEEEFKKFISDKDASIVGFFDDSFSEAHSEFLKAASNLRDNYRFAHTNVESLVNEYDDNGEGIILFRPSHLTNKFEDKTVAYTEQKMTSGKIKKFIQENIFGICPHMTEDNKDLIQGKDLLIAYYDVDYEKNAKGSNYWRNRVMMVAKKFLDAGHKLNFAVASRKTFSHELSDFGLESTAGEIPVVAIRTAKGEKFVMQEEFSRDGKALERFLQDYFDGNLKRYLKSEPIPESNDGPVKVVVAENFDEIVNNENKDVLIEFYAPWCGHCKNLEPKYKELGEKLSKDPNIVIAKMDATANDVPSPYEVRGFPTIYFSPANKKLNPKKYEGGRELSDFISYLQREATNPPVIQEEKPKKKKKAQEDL

[9] = target: T4, Protein disulfide-isomerase A6 (Homo sapiens) (UniProt Q15084); assay: Inhibition of ERp5 (unknown origin) reductase activity assessed as inhibition of PDI/DTT-mediated cleavage of disulfide bond in insulin in the presence of DTT incubated for 40 mins by spectrophotometric analysis; settings: dose 100-200 µM, DDE = dose-dependent effect
T4 sequence (whole entry): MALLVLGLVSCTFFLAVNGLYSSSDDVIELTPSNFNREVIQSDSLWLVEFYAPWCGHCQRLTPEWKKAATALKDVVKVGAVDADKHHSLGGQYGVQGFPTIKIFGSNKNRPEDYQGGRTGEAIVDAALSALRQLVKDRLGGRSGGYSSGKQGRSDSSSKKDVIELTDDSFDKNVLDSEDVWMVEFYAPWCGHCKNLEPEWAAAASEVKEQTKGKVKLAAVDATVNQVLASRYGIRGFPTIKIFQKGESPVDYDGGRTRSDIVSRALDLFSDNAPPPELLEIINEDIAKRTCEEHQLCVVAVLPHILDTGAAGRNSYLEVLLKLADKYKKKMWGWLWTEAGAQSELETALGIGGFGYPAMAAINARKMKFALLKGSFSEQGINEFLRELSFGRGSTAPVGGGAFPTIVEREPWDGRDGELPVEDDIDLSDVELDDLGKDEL

[10] = Toxicity in anesthetized ICR mouse model of electrically-induced carotid artery thrombosis assessed as thrombus formation by measuring blood loss in tail at 30 mg/kg, iv; type: organism-based; settings: in vivo

Structure (SMILES) | inhibition [1] | Activity [4] | Ki [6] | further results
O=c1c(O)c(-c2ccccc2)oc2cc(O)cc(O)c12 [GALANGIN] | Active | Active | 5.9 µM | inhibition [2]: Dde; Activity [3]: Active; inhibition [5]: Dde; Activity [7]: Active; inhibition [8]: Dde; inhibition [9]: Dde; Activity [10]: Non-Toxic
COc1cc(C=O)ccc1OC(C)=O | Active | Active | 309 µM | –
O=C(/C=C/c1ccc(O)cc1)c1ccc(O)cc1O [ISOLIQUIRITIGENIN] | Active | Active | 36.1 µM | –
O=C(Nc1ccccc1)c1ccccc1O | – | Active | – | –
O=c1c(O)c(-c2ccccc2)oc2ccccc12 | – | Active | – | –
NC(CO)C(=O)NNCc1ccc(O)c(O)c1O (centres undefined) | – | Active | – | –
